According to patent publication US20250282830A1, “ANTI-VIRAL PEPTIDE COMPOSITIONS AND METHODS TO IMPROVE BIOLOGICAL ACTIVITY THEREOF” (priority 2021, published 2025):
pIC50: −log10 of the molar value. No end group written: not given here.

system: DENV-1; experiment: Plaque reduction neutralization assay, DENV-1; format: cell-based, Dengue virus serotype 1; details: Vero cells; virus pre-incubated with peptide 1 h at 37° C.; read-out: DENV-1 PRNT50
Description: (§1) Vero cells were seeded at 1×10^5 cells per well and incubated overnight. Twofold serial dilutions of peptide were incubated with 200-300 p.f.u. of virus for 1 h at 37° C. Cells were infected with the virus-peptide mixture for 1 h at 37° C. The inoculum was removed and 0.8% (wt/vol) methylcellulose in medium supplemented with 1% FBS was added. After 3-5 days incubation, plates were fixed and analysed for plaques by immunostaining (DENV). For immunostaining, the cells were fixed, followed by incubation with 4G2, a mouse anti-DENV E protein monoclonal antibody (1:2,000 dilution), for 16-20 h. After addition of a secondary antibody, goat anti-mouse IgG (H+L)-HRP conjugate (1:2,000 dilution), the TrueBlue peroxidase substrate (KPL) was added and the optical density was measured at a wavelength of 450 nm. For crystal violet staining, cells were fixed with fixing solution (5% glutaric dialdehyde in Dulbecco's PBS) followed by staining with 0.1% crystal violet in fixing solution. The IC50 value was calculated by comparing the relative number of plaques in peptide-treated samples to virus-only samples using a four-parameter logistic curve fit.

Sequence	pIC50
DGNWLYDIWNWVCTVLADFKLWLGAKI [Peptide N9N]	7.01
SDDWLRIIWDWVCSVVSDFKAWLSAKI [Peptide N5N]	6.63
SDDWLRIIWDWVCSVVSDFKAWLSAKI [Peptide O5O]	7.43
SGSWLRDIWDWICEVLSDFKTWLKAKL [Peptide O1O]	6.88
SDDWLRTIWDWVCSVLADFKAWLSAKI [Peptide N7O]	6.14
SGDWLRIIWDWVCSVVSDFKTWLSAKI [Peptide N6N]	6.79
GDDWLHDIWDWVCIVLSDFKTWLSAKI [Peptide O8O]	7.16
SGDWLRIIWDWVCSVVSDFKTWLSAKI [Peptide N6O]	6.66
GSTWLRDIWDWVCTVLSDFRVWLKSKL [Peptide N11N]	6.23
SGSWLRDIWEWVCSILTDFKNWLSAKL [Peptide O4O]	6.44
SDDWLRTIWDWVCSVLADFKAWLSAKI [Peptide O7O]	7.44
GDDWLHDIWDWVCIVLSDFKTWLSAKI [Peptide N8N]	7.01
SDDWLRTIWDWVCSVLADFKAWLSAKI [Peptide N7N]	6.77
SGSWLRDVWDWVCTILTDFKNWLTSKL [Peptide O3O]	6.83
SGSWLRDIWDWICEVLSDFKTWLKAKL [Peptide N1N]	6.66

system: DENV-4; experiment: Plaque reduction neutralization assay, DENV-4; format: cell-based, Dengue virus serotype 4; details: Vero cells; virus pre-incubated with peptide 1 h at 37° C.; read-out: DENV-4 PRNT50
Description: as §1

Sequence	pIC50
DGNWLYDIWNWVCTVLADFKLWLGAKI [Peptide N9N]	7.10
SDDWLRIIWDWVCSVVSDFKAWLSAKI [Peptide N5N]	6.47
SDDWLRIIWDWVCSVVSDFKAWLSAKI [Peptide O5O]	6.56
SGSWLRDIWDWICEVLSDFKTWLKAKL [Peptide O1O]	6.54
SDDWLRTIWDWVCSVLADFKAWLSAKI [Peptide N7O]	6.70
SGDWLRIIWDWVCSVVSDFKTWLSAKI [Peptide N6N]	6.78
GDDWLHDIWDWVCIVLSDFKTWLSAKI [Peptide O8O]	6.15
SGDWLRIIWDWVCSVVSDFKTWLSAKI [Peptide N6O]	6.56
GSTWLRDIWDWVCTVLSDFRVWLKSKL [Peptide N11N]	6.51
SGSWLRDIWEWVCSILTDFKNWLSAKL [Peptide O4O]	5.81
SDDWLRTIWDWVCSVLADFKAWLSAKI [Peptide O7O]	6.36
GDDWLHDIWDWVCIVLSDFKTWLSAKI [Peptide N8N]	6.71
SDDWLRTIWDWVCSVLADFKAWLSAKI [Peptide N7N]	6.62
SGSWLRDVWDWVCTILTDFKNWLTSKL [Peptide O3O]	6.57
SGSWLRDIWDWICEVLSDFKTWLKAKL [Peptide N1N]	5.96

system: DENV-3; experiment: Plaque reduction neutralization assay, DENV-3; format: cell-based, Dengue virus serotype 3; details: Vero cells; virus pre-incubated with peptide 1 h at 37° C.; read-out: DENV-3 PRNT50
Description: as §1

Sequence	pIC50
DGNWLYDIWNWVCTVLADFKLWLGAKI [Peptide N9N]	6.32
SDDWLRIIWDWVCSVVSDFKAWLSAKI [Peptide N5N]	5.86
SDDWLRIIWDWVCSVVSDFKAWLSAKI [Peptide O5O]	6.75
SGSWLRDIWDWICEVLSDFKTWLKAKL [Peptide O1O]	6.76
SDDWLRTIWDWVCSVLADFKAWLSAKI [Peptide N7O]	5.62
SGDWLRIIWDWVCSVVSDFKTWLSAKI [Peptide N6N]	5.56
GDDWLHDIWDWVCIVLSDFKTWLSAKI [Peptide O8O]	6.35
SGDWLRIIWDWVCSVVSDFKTWLSAKI [Peptide N6O]	5.83
GSTWLRDIWDWVCTVLSDFRVWLKSKL [Peptide N11N]	6.54
SGSWLRDIWEWVCSILTDFKNWLSAKL [Peptide O4O]	5.66
SDDWLRTIWDWVCSVLADFKAWLSAKI [Peptide O7O]	6.67
GDDWLHDIWDWVCIVLSDFKTWLSAKI [Peptide N8N]	6.57
SDDWLRTIWDWVCSVLADFKAWLSAKI [Peptide N7N]	5.94
SGSWLRDVWDWVCTILTDFKNWLTSKL [Peptide O3O]	6.62
SGSWLRDIWDWICEVLSDFKTWLKAKL [Peptide N1N]	5.49

system: not listed separately; experiment: Time-lapse fluorescence microscopy imaging of peptide-induced vesicle rupture; details: 100 nM peptide
Description: Highly parallel measurements of peptide-induced liposome rupture were conducted by time-lapsed epifluorescence microscopy imaging. An Eclipse Ti-E inverted microscope (Nikon) with a high-pressure mercury lamp, a CFI Plan Apochromat TIRF×60 oil-immersion objective (NA 1.49; Nikon) and an Andor iXon3 897 EMCCD camera (Andor Technology), was utilized for measurements. The samples were illuminated with a mercury lamp (Intenslight C-HGFIE) using a TRITC filter set. Briefly, glass coverslips were assembled into a microfluidic flow cell, and coated with a thin layer of PLL-g-PEG(-biotin), followed by tethering of 0.025 μg ml^−1 liposomes via biotin-neutravidin coupling. Peptide was then added at a volumetric rate of 100 μl min^−1, and micrographs were recorded every 5-30 s depending on the particular experiment. The initial time was defined by when the peptide solution entered the channel inlet. Data processing and analysis were conducted using ImageJ (National Institutes of Health) and Python(x,y) software packages. The diameter of individual liposomes was estimated based on fluorescence intensity values. […]
Using time-lapse fluorescence microscopy imaging, we further investigated the interactions of different versions of Peptides 2 and 4 with tethered vesicles at the single-vesicle level and saw different degrees of vesicle rupture in terms of total extent and speed (FIG. 14).

Sequence	Vesicle rupture time, calcein (Cal) dye release [min]	Vesicle rupture time, rhodamine (Rh) dye release [min]
SDDWLRTIWDWVCSVLADFKAWLSAKI (Synthetic_Anti-viral peptide derived from hepatitis C virus NS5A protein) [Peptide 7]	2.41 ± 0.06	5.50 ± 0.11
SDDWLRIIWDWVCSVVSDFKAWLSAKI (Synthetic_Anti-viral peptide derived from hepatitis C virus NS5A protein) [Peptide 5]	4.69 ± 0.22	15.25 ± 0.43
SGSWLRDIWDWICEVLSDFKTWLKAKL (Synthetic_Anti-viral peptide derived from hepatitis C virus NS5A protein) [Peptide 1]	5.95 ± 0.03	10.58 ± 0.33
SGDWLRIIWDWVCSVVSDFKTWLSAKI (Synthetic_Anti-viral peptide derived from hepatitis C virus NS5A protein) [Peptide 6]	2.46 ± 0.02	4.75 ± 0.06
SGSWLRDIWEWVCSILTDFKNWLSAKL (Synthetic_Anti-viral peptide derived from hepatitis C virus NS5A protein) [Peptide 4]	6.50 ± 0.3	21.13 ± 0.38
AESWLWEVWDWVLHVLSDFKTCLKAKF (Synthetic_Anti-viral peptide derived from hepatitis C virus NS5A protein) [Peptide 10]	2.38 ± 0.05	10.09 ± 0.10
GDDWLHDIWDWVCIVLSDFKTWLSAKI (Synthetic_Anti-viral peptide derived from hepatitis C virus NS5A protein) [Peptide 8]	2.49 ± 0.06	3.28 ± 0.08
SGSWLRDVWDWICTVLTDFKTWLQSKL [Peptide 2]	5.54 ± 0.30	8.69 ± 0.08
GSTWLRDIWDWVCTVLSDFRVWLKSKL (Synthetic_Anti-viral peptide derived from hepatitis C virus NS5A protein) [Peptide 11]	4.15 ± 0.04	6.00 ± 0.13
DGNWLYDIWNWVCTVLADFKLWLGAKI (Synthetic_Anti-viral peptide derived from hepatitis C virus NS5A protein) [Peptide 9]	4.22 ± 0.17	6.50 ± 0.07
SGSWLRDVWDWVCTILTDFKNWLTSKL [Peptide 3]	4.53 ± 0.17	8.41 ± 0.08

same assay, conditions: 1000 nM peptide

Sequence	Vesicle rupture time, calcein (Cal) dye release [min]	Vesicle rupture time, rhodamine (Rh) dye release [min]
SDDWLRTIWDWVCSVLADFKAWLSAKI (Synthetic_Anti-viral peptide derived from hepatitis C virus NS5A protein) [Peptide 7]	1.47 ± 0.01	2.13 ± 0.00
SDDWLRIIWDWVCSVVSDFKAWLSAKI (Synthetic_Anti-viral peptide derived from hepatitis C virus NS5A protein) [Peptide 5]	2.53 ± 0.10	11.20 ± 0.17
SGSWLRDIWDWICEVLSDFKTWLKAKL (Synthetic_Anti-viral peptide derived from hepatitis C virus NS5A protein) [Peptide 1]	4.67 ± 0.32	6.13 ± 0.09
SGDWLRIIWDWVCSVVSDFKTWLSAKI (Synthetic_Anti-viral peptide derived from hepatitis C virus NS5A protein) [Peptide 6]	1.57 ± 0.03	2.74 ± 0.03
SGSWLRDIWEWVCSILTDFKNWLSAKL (Synthetic_Anti-viral peptide derived from hepatitis C virus NS5A protein) [Peptide 4]	3.71 ± 0.07	9.51 ± 0.09
AESWLWEVWDWVLHVLSDFKTCLKAKF (Synthetic_Anti-viral peptide derived from hepatitis C virus NS5A protein) [Peptide 10]	2.06 ± 0.02	2.09 ± 0.05
GDDWLHDIWDWVCIVLSDFKTWLSAKI (Synthetic_Anti-viral peptide derived from hepatitis C virus NS5A protein) [Peptide 8]	1.70 ± 0.02	1.78 ± 0.02
SGSWLRDVWDWICTVLTDFKTWLQSKL [Peptide 2]	1.91 ± 0.04	3.13 ± 0.12
GSTWLRDIWDWVCTVLSDFRVWLKSKL (Synthetic_Anti-viral peptide derived from hepatitis C virus NS5A protein) [Peptide 11]	4.67 ± 0.08	4.91 ± 0.38
DGNWLYDIWNWVCTVLADFKLWLGAKI (Synthetic_Anti-viral peptide derived from hepatitis C virus NS5A protein) [Peptide 9]	1.41 ± 0.03	1.87 ± 0.014
SGSWLRDVWDWVCTILTDFKNWLTSKL [Peptide 3]	1.97 ± 0.11	2.99 ± 0.03

same assay, conditions: small and large tethered vesicles

Sequence	Dependence of vesicle rupture on vesicle size (membrane-curvature sensing), single-vesicle analysis
SGSWLRDVWDWICTVLTDFKTWLQSKL [O2O] (not fully specified) [Peptide O2O, Peptide 2 with O and O terminal endings]	have membrane-curvature sensing mechanisms

system: DENV-2; experiment: Plaque reduction neutralization assay, DENV-2; format: cell-based, Dengue virus serotype 2; details: Vero cells; virus pre-incubated with peptide 1 h at 37° C.; read-out: DENV-2 PRNT50
Description: as §1

Sequence	pIC50
DGNWLYDIWNWVCTVLADFKLWLGAKI [Peptide N9N]	6.26
SDDWLRIIWDWVCSVVSDFKAWLSAKI [Peptide N5N]	6.26
SDDWLRIIWDWVCSVVSDFKAWLSAKI [Peptide O5O]	6.79
SGSWLRDIWDWICEVLSDFKTWLKAKL [Peptide O1O]	6.62
SDDWLRTIWDWVCSVLADFKAWLSAKI [Peptide N7O]	5.72
SGDWLRIIWDWVCSVVSDFKTWLSAKI [Peptide N6N]	6.27
GDDWLHDIWDWVCIVLSDFKTWLSAKI [Peptide O8O]	6.73
SGDWLRIIWDWVCSVVSDFKTWLSAKI [Peptide N6O]	6.26
GSTWLRDIWDWVCTVLSDFRVWLKSKL [Peptide N11N]	6.03
SGSWLRDIWEWVCSILTDFKNWLSAKL [Peptide O4O]	5.92
SDDWLRTIWDWVCSVLADFKAWLSAKI [Peptide O7O]	6.52
GDDWLHDIWDWVCIVLSDFKTWLSAKI [Peptide N8N]	6.60
SDDWLRTIWDWVCSVLADFKAWLSAKI [Peptide N7N]	6.25
SGSWLRDVWDWVCTILTDFKNWLTSKL [Peptide O3O]	6.53
SGSWLRDIWDWICEVLSDFKTWLKAKL [Peptide N1N]	6.40
